Experiments:
mOR-I7 [1] = biological target: T1, mOR-I7 (Mus musculus, UniProt Q9QWU6); assay: Novel olfactory functional assay (CCBSA), microplate calcium flux (Fluo4, FDSS) on HEK 293T overexpressing mOR-I7; format: cell-based; conditions: for hit / potential ligand of mOR-I7 in screening of 30 odorants: carrier fraction 4 (bOBP and BSA) incubated with 16 μl of 1M odorant, ratio mOR-I7 on Wt, standardized to 1 mM ATP
T1 construct: expressed in transfected cells; host or cells: HEK 293T
T1 sequence (Q9QWU6 1-327): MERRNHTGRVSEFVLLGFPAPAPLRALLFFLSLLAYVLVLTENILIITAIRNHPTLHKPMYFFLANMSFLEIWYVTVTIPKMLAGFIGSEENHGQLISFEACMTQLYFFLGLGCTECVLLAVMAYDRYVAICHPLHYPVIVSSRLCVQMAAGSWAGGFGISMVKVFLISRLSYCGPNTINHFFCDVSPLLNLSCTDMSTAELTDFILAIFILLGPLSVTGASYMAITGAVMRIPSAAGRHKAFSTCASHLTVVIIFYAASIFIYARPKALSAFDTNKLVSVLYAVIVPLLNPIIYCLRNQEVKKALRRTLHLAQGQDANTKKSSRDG
Experimental: A solution of BP including SA, OBP and/or olfactory mucus (see concentration in the text) was incubated in the presence of odorant in a sealed flask for 16 hours at 4° C. (FIG. 3A). Such incubated-BP solution was then used as tested complex on olfactory receptor-expressing cells. Prior to incubation with such complex, cells were incubated for 1 hour with 4 μM Fluo4-AM (Molecular Probe) in the presence of 1 mM probenecid, and then rinsed twice with Fluo4-AM free HBSS buffer. After injection of odorant-BP complex on OR expressing cells, calcium flux was followed by measuring fluorescence at 520 nm ([…]) on FDSS, a plate reader from Hamamatsu Photonics K.K. (Japan) at 25° C.
In an attempt to be closer to physiological process of olfaction and thereof to increase specificity and sensitivity of the cell-based assay described above, a novel olfactory functional assay was developed. Most of the time, mammalian smells volatile odorant molecules. However in the cell-based assay described above as in most cell-based assays, odorant molecules were injected into aqueous buffer. Such injection may lead to formation of micelles that can alter efficacy and specificity of ligands. Therefore a cell-based assay was developed focusing an a better solubilization of odorants. In summary, in a sealed flask, bovine olfactory mucus was incubated in the presence of an odorant (FIG. 3A). It was hereby tested if an odorant would be trapped and solubilized in that fluid. Thereafter, such solubilized odorant was injected onto cultured-cells overexpressing an olfactory receptor. Activation of this receptor could then be followed by conventional assay including fluorescent (FIGS. 3 B and C) and luminescent calcium assays.
For this novel assay, mOR-I7 activation was assessed by octanal. A constant volume of olfactory mucus was incubated in the presence of increasing amount of octanal ranging from 0 to 16 μl of a solution of 1M octanal. After 16 hours incubation at 4° C., bovine olfactory mucus was injected on HEK 293T overexpressing mOR-I7. Calcium flux was followed with Fluo4 on FDSS, a plate reader from Hamamatsu Photonics K.K. (Japan).
Capacity of fraction 4 to fulfil the role of odorant solubilizator was assessed in the newly proposed assay. Screening of 30 odorant molecules (FIG. 5A) was performed on HEK 293T wild type (FIG. 5C) or overexpressing mOR-I7 (FIG. 5B). Fraction 4 was incubated overnight at 4° C. […] These odorants led to at least one fold more activation of HEK 293T overexpressing mOR-I7 than the wild type counterpart. They can be classified into two groups. One group (FIG. 5 E (a) to (e)) gathers molecules that fit the olfactophore 1 depicted in FIG. 5 E (j). They are schematically made of 2 electronegative poles distanced by 6 carbons. They all contain a 6-8 carbon chain ended by an electronegative group as depicted by olfactophore 2 represented in FIG. 5 E (k).
However this fraction 4 contained two major proteins, bOBP and BSA. Thus the results of said Example could in this approach not rule out any implication of BSA into fraction 4 properties. Therefore the capacity of BSA to solubilize and thereof to enhance the efficacy of odorants in the novel cell based olfactory functional assay as described by the present invention has been tested. To be as close as possible to BSA concentration observed in fraction 4. BSA concentration was set up at 5×10^−6 M for the following experiments (marked by an arrow on FIG. 6 G). Fraction 4 and a solution of fatty acid-free BSA were incubated at 4° C. for 16 hours in the presence of increasing volume of 1M octanal. So-incubated solutions were then applied onto HEK 293T wt or overexpressing mOR-I7. Calcium-flux was followed on a plate reader (Hamamatsu Photonics K.K., Japan) with fluo4 as fluorescent dye (FIG. 6 A to F). […] Such phenomenon is usually observed in such fluorescence assay when increasing ligand concentrations are injected. […]

mOR-I7 [2] = biological target: T1, mOR-I7; conditions: literature (references); cited from earlier work
mOR-I7 [3] = biological target: T1, mOR-I7; assay: cAMP level immunoassay (TROPIX) in the novel assay on HEK 293T overexpressing mOR-I7; format: cell-based; conditions: BSA solution incubated with 16 μl of 1 M odorant; 20 minutes incubation
Experimental: Similarly to the first step of the fluorescence-based functional assay described above, BP solutions including SA, OBP and/or olfactory mucus (see concentration in the text) were incubated in the presence of odorant in a sealed flask for 16 hours at 4° C. (FIG. 3A). Such odorant-BP complexes were then applied to cultured-cell for 20 minutes at 37° C. cAMP level was then measured using the Tropix kit according to the manufacturer procedures (Applied Biosystem).
As depicted in FIG. 1, binding of odorant molecule to olfactory receptor triggers a cascade of molecular events. In the most commonly accepted pathway, the first second messenger is cAMP synthesized by adenylate cyclase type III. Therefore, a mean to test olfactory receptor activation is to assess variation of cellular cAMP pool after olfactory receptor activation. It is noteworthy that such assay could be performed in parallel to calcium flux assay described above to validate hits obtained during a screening.
Specificity of the novel cell based olfactory functional assay according to the present invention was tested following mOR-I7 activation after injection of these three odorants and two non related odorant, vanilline and piperonyl isobutyrate. Olfactory receptor activation was detected by cellular cAMP pool immunoassay. A solution of BSA was incubated overnight at 4° C.
As discussed above (FIG. 1), activation of olfactory receptor can also be followed through cAMP synthesis. […] Results are expressed as percent of response observed after incubation with 100 μM forskolin, an activator of adenylate cyclases. […] Scheme of the odorant molecules are depicted in FIG. 7E.

[4] = fraction 4 or BSA solution incubated with increasing volume of 1M octanal

## CCCCCCCC=O [octanal]
mOR-I7 [1]; BSA as carrier, calcium flux and cAMP screenings together
  hits / potential ligands of mOR-I7 through the 4 screenings: hits
mOR-I7 [1]; BSA as carrier, standardized to 100 μM ATP
  ligands of mOR-I7 in two independent calcium flux screenings of 30 odorants: consistent
mOR-I7 [1]; bovine olfactory mucus incubated with 0 to 16 μl of 1M octanal, 16 hours 4° C.
  fluorescence intensity (calcium flux): proportional to the volume of odorant
mOR-I7 [1]
  hit / potential ligand of mOR-I7 in screening of 30 odorants: potential ligands of mOR-I7
mOR-I7 [1]; listed as 1-octanal
  hit / potential ligand of mOR-I7 in screening of 30 odorants: hits
mOR-I7 [1]; fraction 4 or BSA solution (5×10^−6 M) incubated with increasing volume of 1M octanal, kinetics over 300 seconds
  calcium flux in HEK 293T overexpressing mOR-I7: calcium flux was detected
mOR-I7 [1]; [4]
  dependence of fluorescence intensity on amount of odorant: proportional to the amount of odorant
  time required to reach maximum fluorescence: decreased when odorant volume increased
mOR-I7 [2]
  known activation of mOR-I7: activated specifically
mOR-I7 [3]
  mOR-I7 activation by cellular cAMP pool: mOR-I7 ligands

— patent publication US20090136968A1, “Novel in vitro methods for studying receptors recognizing volatile compounds” (Chemcom S. A., priority 2005, published 2009)
